Assay results reported in publication PMC12210654, “Palazestrant, a novel oral Complete Estrogen Receptor Antagonist (CERAN) and Selective Estrogen Receptor Degrader (SERD), in patients with ER+/HER2− advanced or metastatic breast cancer: phase 1/2 study results” (Breast Cancer Research : BCR, 2025).

Assay: Safety: adverse events (NCI CTCAE v5.0), electrocardiograms
Type: in vivo, human
Settings: phase 1a; for TEAE Neutropenia, Toxicity Grade All: includes neutropenia and neutrophil count decreased
Description: Safety assessments included the monitoring of AEs, clinical laboratory parameters, electrocardiograms, and vital signs. AE severity was graded according to the National Cancer Institute Common Terminology Criteria for Adverse Events (version 5.0).
All DLT analyses (phase 1a) were performed in patients enrolled in the study during cycle 1 and who either received 75% of the planned palazestrant doses or experienced a DLT during cycle 1. All PK analyses were performed in patients who received at least 1 dose of palazestrant and had adequate postbaseline PK samples for characterization of PK parameters. All safety analyses were performed and PFS assessed in patients who received at least 1 dose of palazestrant. Clinical response (CR or PR) was assessed in patients who received at least 1 cycle of palazestrant, had measurable disease at baseline, and had at least 1 postbaseline tumor assessment. CBR was assessed in patients who received at least 1 cycle of palazestrant, had at least 1 postbaseline tumor assessment, and started their first dose at least 24 weeks before data cutoff. Patients who discontinued study treatment without radiographic progression within 24 weeks from the first dose were not included in the CBR analysis. PK parameters were estimated using conventional noncompartmental methods. For CBR, estimates were accompanied by 2-sided 95% confidence intervals (95% CIs). For PFS, Kaplan–Meier analyses were used to determine medians, event-free rates, and 95% CIs. For all other outcomes, categorical data were analyzed using frequencies and percentages, and continuous data were analyzed using means (standard deviation) or medians (range), as appropriate.

What does the source list for `CCCN1CC(Oc2ccc([C@@H]3c4[nH]c5ccccc5c4C[C@@H](C)N3CC(C)(C)F)cc2)C1` [palazestrant, Palazestrant]?
TEAE Vomiting, Toxicity Grade G3 (60 mg (N=6)): 0; TEAE Vomiting, Toxicity Grade G4 (60 mg (N=6)): 0; TEAE Neutropenia, Toxicity Grade All (60 mg (N=6)): 1 (16.7); TEAE Constipation, Toxicity Grade All (90 mg (N=6)): 1 (16.7); TEAE Constipation, Toxicity Grade G3 (90 mg (N=6)): 0; TEAE Constipation, Toxicity Grade G4 (90 mg (N=6)): 0; TEAE Decreased appetite, Toxicity Grade All (90 mg (N=6)): 1 (16.7); TEAE Decreased appetite, Toxicity Grade G3 (90 mg (N=6)): 0; TEAE Decreased appetite, Toxicity Grade G4 (90 mg (N=6)): 0; TEAE Diarrhea, Toxicity Grade All (90 mg (N=6)): 0; TEAE Diarrhea, Toxicity Grade G3 (90 mg (N=6)): 0; TEAE Diarrhea, Toxicity Grade G4 (90 mg (N=6)): 0; TEAE Fatigue, Toxicity Grade All (90 mg (N=6)): 0; TEAE Fatigue, Toxicity Grade G3 (90 mg (N=6)): 0; TEAE Fatigue, Toxicity Grade G4 (90 mg (N=6)): 0; TEAE Headache, Toxicity Grade All (90 mg (N=6)): 1 (16.7); TEAE Headache, Toxicity Grade G3 (90 mg (N=6)): 0; TEAE Headache, Toxicity Grade G4 (90 mg (N=6)): 0; TEAE Maculopapular rash, Toxicity Grade All (90 mg (N=6)): 0; TEAE Maculopapular rash, Toxicity Grade G3 (90 mg (N=6)): 0; TEAE Maculopapular rash, Toxicity Grade G4 (90 mg (N=6)): 0; TEAE Nausea, Toxicity Grade All (90 mg (N=6)): 2 (33.3); TEAE Nausea, Toxicity Grade G3 (90 mg (N=6)): 0; TEAE Nausea, Toxicity Grade G4 (90 mg (N=6)): 0; TEAE Neutropenia, Toxicity Grade G3 (90 mg (N=6)): 0; TEAE Neutropenia, Toxicity Grade G4 (90 mg (N=6)): 0; TEAE Vomiting, Toxicity Grade All (90 mg (N=6)): 1 (16.7); TEAE Vomiting, Toxicity Grade G3 (90 mg (N=6)): 0; TEAE Vomiting, Toxicity Grade G4 (90 mg (N=6)): 0; TEAE Neutropenia, Toxicity Grade All (90 mg (N=6)): 0; TEAE Constipation, Toxicity Grade All (120 mg (N=6)): 0; TEAE Constipation, Toxicity Grade G3 (120 mg (N=6)): 0; TEAE Constipation, Toxicity Grade G4 (120 mg (N=6)): 0; TEAE Decreased appetite, Toxicity Grade All (120 mg (N=6)): 1 (16.7); TEAE Decreased appetite, Toxicity Grade G3 (120 mg (N=6)): 0; TEAE Decreased appetite, Toxicity Grade G4 (120 mg (N=6)): 0; TEAE Diarrhea, Toxicity Grade All (120 mg (N=6)): 1 (16.7); TEAE Diarrhea, Toxicity Grade G3 (120 mg (N=6)): 0; TEAE Diarrhea, Toxicity Grade G4 (120 mg (N=6)): 0; TEAE Fatigue, Toxicity Grade All (120 mg (N=6)): 2 (33.3); TEAE Fatigue, Toxicity Grade G3 (120 mg (N=6)): 0; TEAE Fatigue, Toxicity Grade G4 (120 mg (N=6)): 0; TEAE Headache, Toxicity Grade All (120 mg (N=6)): 1 (16.7); TEAE Headache, Toxicity Grade G3 (120 mg (N=6)): 0; TEAE Headache, Toxicity Grade G4 (120 mg (N=6)): 0; TEAE Maculopapular rash, Toxicity Grade All (120 mg (N=6)): 1 (16.7); TEAE Maculopapular rash, Toxicity Grade G3 (120 mg (N=6)): 0; TEAE Maculopapular rash, Toxicity Grade G4 (120 mg (N=6)): 0; TEAE Nausea, Toxicity Grade All (120 mg (N=6)): 5 (83.3); TEAE Nausea, Toxicity Grade G3 (120 mg (N=6)): 0; TEAE Nausea, Toxicity Grade G4 (120 mg (N=6)): 0; TEAE Neutropenia, Toxicity Grade G3 (120 mg (N=6)): 0; TEAE Neutropenia, Toxicity Grade G4 (120 mg (N=6)): 1 (16.7); TEAE Vomiting, Toxicity Grade All (120 mg (N=6)): 2 (33.3); TEAE Vomiting, Toxicity Grade G3 (120 mg (N=6)): 1 (16.7); TEAE Vomiting, Toxicity Grade G4 (120 mg (N=6)): 0; TEAE Neutropenia, Toxicity Grade All (120 mg (N=6)): 2 (33.3); TEAE Constipation, Toxicity Grade All (150 mg (N=5)): 0; TEAE Constipation, Toxicity Grade G3 (150 mg (N=5)): 0; TEAE Constipation, Toxicity Grade G4 (150 mg (N=5)): 0; TEAE Decreased appetite, Toxicity Grade All (150 mg (N=5)): 1 (20.0); TEAE Decreased appetite, Toxicity Grade G3 (150 mg (N=5)): 0; TEAE Decreased appetite, Toxicity Grade G4 (150 mg (N=5)): 0; TEAE Diarrhea, Toxicity Grade All (150 mg (N=5)): 1 (20.0); TEAE Diarrhea, Toxicity Grade G3 (150 mg (N=5)): 0; TEAE Diarrhea, Toxicity Grade G4 (150 mg (N=5)): 0; TEAE Fatigue, Toxicity Grade All (150 mg (N=5)): 1 (20.0); TEAE Fatigue, Toxicity Grade G3 (150 mg (N=5)): 1 (20.0); TEAE Fatigue, Toxicity Grade G4 (150 mg (N=5)): 0; TEAE Headache, Toxicity Grade All (150 mg (N=5)): 1 (20.0); TEAE Headache, Toxicity Grade G3 (150 mg (N=5)): 0; TEAE Headache, Toxicity Grade G4 (150 mg (N=5)): 0; TEAE Maculopapular rash, Toxicity Grade All (150 mg (N=5)): 0; TEAE Maculopapular rash, Toxicity Grade G3 (150 mg (N=5)): 0; TEAE Maculopapular rash, Toxicity Grade G4 (150 mg (N=5)): 0; TEAE Nausea, Toxicity Grade All (150 mg (N=5)): 4 (80.0); TEAE Nausea, Toxicity Grade G3 (150 mg (N=5)): 1 (20.0); TEAE Nausea, Toxicity Grade G4 (150 mg (N=5)): 0; TEAE Neutropenia, Toxicity Grade G3 (150 mg (N=5)): 0; TEAE Neutropenia, Toxicity Grade G4 (150 mg (N=5)): 1 (20.0); TEAE Vomiting, Toxicity Grade All (150 mg (N=5)): 2 (40.0); TEAE Vomiting, Toxicity Grade G3 (150 mg (N=5)): 0
